Measurements published in patent US8268873B2 (priority 1999, dated 2012).
Like-named read-outs stand apart in the source and are kept apart here.

Experiments:
human PBMC B cells = test: cells; type: cell-based; details: read-out: B-cells (IC50)
human PBMC T cells = test: cells; type: cell-based; details: 72 h, read-out: T-cells (IC50)
IMPDH human type II = IMPDH human type II (Homo sapiens, UniProt P12268); test: biochemical

Structure (SMILES)	IC50 (human PBMC B cells; Homo sapiens, 72 h) [µM]	IC50 (human PBMC T cells) [µM]	Ki (IMPDH human type II) [µM]	further results
CC[C@H](CCC#N)OC(=O)NCc1cccc(NC(=O)Nc2ccc(-c3cnco3)c(OC)c2)c1 [Compound 89]	< 0.1	< 0.1	–	–
COc1cc(NC(=O)Nc2cccc(CNC(=O)OC[C@H](CC#N)NC(=O)OC(C)(C)C)c2)ccc1-c1cnco1 [Compound 10]	–	0.1 to 1	–	–
CC[C@@H](CC#N)OC(=O)NCc1cccc(NC(=O)Nc2ccc(-c3cnco3)c(OC)c2)c1 [Compound 88]	–	–	< 0.01	–
COc1cc(NC(=O)Nc2cccc(CNC(=O)O[C@H](CN3CCCC3)c3ccccc3)c2)ccc1-c1cnco1 [Compound 98]	< 0.1	< 0.1	–	–
CCN(C)CCC(OC(=O)NCc1cccc(NC(=O)Nc2ccc(-c3cnco3)c(OC)c2)c1)c1ccccc1 (stereo not shown) [Compound 139]	0.1 to 1	0.1 to 1	–	–
CC[C@H](COC(=O)CN)OC(=O)NCc1cccc(NC(=O)Nc2ccc(-c3cnco3)c(OC)c2)c1 [Compound 95]	–	–	–	Ki (IMPDH human type II; IMPDH human type II, 200 μM IMP, 200 μM NAD, 37° C.): < 0.01 µM
COc1cc(NC(=O)Nc2cccc(CNC(=O)OC3CCC[C@H]3N3CCOCC3)c2)ccc1-c1cnco1 (stereo partly shown) [Compound 80]	< 0.1	–	–	–
C=CC(COC(C)=O)OC(=O)NCc1cccc(NC(=O)Nc2ccc(-c3cnco3)c(OC)c2)c1 (stereo not shown) [Compound 133]	–	–	0.01 to 0.05	–
COc1cc(NC(=O)Nc2cccc([C@H](C)NC(=O)O[C@H]3CCOC3)c2)ccc1C#N [Compound 185]	–	–	–	IC50 (human PBMC B cells): < 0.1 µM
CCC(CCC#N)OC(=O)NCc1cccc(NC(=O)Nc2ccc(-c3cnco3)c(OC)c2)c1 (stereo not shown) [Compound 45]	–	–	< 0.01	–
